{"source": "patent US8772274B1", "about": "“Anti-cancer compositions and methods” (The Penn State Research Foundation, priority 2008, dated 2014)", "assay_type_in_all_cases": "cell-based", "key": {"[1]": {"test_system": "PI3 kinase signaling in Caco-2 cells", "test": "Western blot analysis of Caco-2 cell lysates", "method": "For additional Western blot analysis, Caco-2 cell lysates are harvested by addition of lyses buffer containing 50 mM HEPES (pH 7.5), 150 mM NaCl, 10 mM EDTA, 10% glycerol, 1% Triton X-100, 1 mM sodium orthovanadate, 0.1 mM sodium molybdate, 1 mM phenylmethylsulfonyl fluoride, 20 μg/ml aprotinin, and 5 μg/ml leupeptin. Whole cell lysates are centrifuged (≦10,000×g) for 10 minutes at 4° C. to remove cell debris. Protein concentrations are quantitated using the BCA assay (Pierce; Rockford, Ill.), and 30 μg of lysate loaded per lane onto NuPAGE Gels (Life Technologies, Inc. Carlsbad, Calif.). Following electrophoresis, samples are transferred to polyvinylidene difluoride (PVDF) membrane (Pall Corporation, Pensacola, Fla.) and the blots probed with antibodies according to each supplier's recommendations: antibodies to PRAS40 and phosphorylated PRAS40 from Invitrogen (Invitrogen Corporation, Carlsbad, Calif.); antibodies to cyclin D1, p27, p21, and Erk2 from Santa Cruz Biotechnology (Santa Cruz, Calif.); and antibodies to Akt2, phosphorylated-Akt (Ser473), phosphorylated-Erk 1/2 and cleaved PARP from Cell Signaling Technology (Danvers, Mass.). Secondary antibodies conjugated with horseradish peroxidase are obtained from Santa Cruz Biotechnology (Santa Cruz, Calif.). Immunoblots are developed using the enhanced chemiluminescence (ECL) detection system (Pierce Biotechnology, Rockford, Ill.) (FIGS. 6A and 6B)."}, "[2]": {"test_system": "iNOS (total nitrate+nitrite in Caco-2 cells)", "test": "Nitrite estimation (nitrate/nitrite colorimetric assay)", "settings": "2-4 μM, 72 hours", "method": "Nitrite content in cell culture media is determined using a nitrate/nitrite colorimetric assay kit (Cayman Chemical Company, Ann Arbor, Mich.) essentially as described in Salvucci, O. et al., Cancer Res 2001; 61:318-26. Caco-2 cells (1×10^6) are plated in 60 mm culture dishes in advanced DMEM containing 10% heat treated FBS for 12 hours, growing cells conditioned with phenol-red free DMEM containing 0.5% FBS for an additional 12 hours. Cells are then treated with increasing concentrations of PBIT (40 and 80 μM) or PBISe (2 and 4 μM) dissolved in phenol-red free DMEM (2 ml) containing 0.5% FBS for 72 hours. Culture supernatants are collected and total nitrite (nitrate+nitrite) measured by incubating 80 μL supernatant with enzyme cofactor mixture (10 μL) and nitrate reductase (10 μL) for 2 hours. Total nitrite is measured by the addition of Griess reagent-I and II (50 μL each). A nitrate standard curve (5-35 μM) is simultaneously prepared. Total nitrite present in media alone is subtracted from all experimental values and represented as micromolar nitrite produced following each treatment."}, "[3]": {"test_system": "UACC 903 melanoma cell line", "test": "MTS cell viability assay, UACC 903", "settings": "Homo sapiens; UACC 903 melanoma; 24 hours treatment; MTS; read-out: IC50, UACC 903 (Table I)", "protocol": "Cellular viability compared to control treated cells is measured using the MTS assay (Promega, Madison, Wis.)."}}, "note": "Structures can show the parent of a compound that is named as a salt."}
{"smiles": "N=C(N)[Se]CCc1ccc(CC[Se]C(=N)N)cc1", "note": "[PBISe, s,s′-1,4-phenylene-bis(1,2-ethanediyl)bis-isoselenourea dihydrobromide]", "values": [{"measurement": "cleaved PARP", "setting": "[1]", "result": "increase"}, {"measurement": "downstream pPRAS40 level", "setting": "[1]", "result": "decreased"}, {"measurement": "pAkt and Akt2 levels", "setting": "[1]", "result": "decreased"}, {"measurement": "total nitrate+nitrite production", "setting": "[2]", "result": "reduces"}, {"measurement": "IC50", "setting": "[3]", "result": "8.1 ± 0.8", "unit": "µM"}]}
